According to patent US10071983B2, “Activatable fluorogenic compounds and uses thereof as near infrared probes” (Ramot at Tel-Aviv University Ltd., priority 2011, dated 2018):
Several values for one entry are separate records, joined by “and”; a condition that tells them apart may be missing. Equal entries are not always repeated.

What was measured:
[1] = NIR fluorescence emission spectrum of dye compounds; format: physicochemical; conditions: for fluorescence emission peak in the NIR region: PBS 7.4; for λmax: Table 1, λmax (fluorescence emission)
From the text: (§1) Compound 1 (which generates the dye compound QCy7 deprotonation) was obtained as an orange crystalline powder. FIGS. 4A and 4B present the UV-Vis spectrum of Compound 1 (FIG. 4A), compared to that of the acetate Compound 3 (FIG. 4B). […] The obtained large stokes shift between the excitation and the emission wavelengths of about 150 nm is a desirable feature for fluorescence probes, which assists in increasing the signal-to-noise ratio.
(§2) FIG. 5 presents the data obtained for fluorescence intensity vs. wavelength of standard sample (Cresyl violet; FIG. 5A), and test sample (QCy7; FIG. 5B), at the indicated concentrations. The measurements were performed in a 1 cm cuvette using Fluoromax-3 fluorometer; at an excitation wavelength of 560 nm. Cresyl violet was dissolved in methanol and Compound 1 in PBS 7.4 (just generating QCy7).
(§3) FIG. 8 presents the data obtained for fluorescence intensity vs. wavelength of standard sample (QCy7; FIG. 8A), and test sample (Sulfo-QCy7, generated from Compound 9; FIG. 8B), at the indicated concentrations. The measurements were performed at a 96-wells plate reader using Fluoromax-3 fluorometer; at an excitation wavelength of 560 nm. Both samples were dissolved in PBS 7.4.

[2] = Fluorescence quantum yield calculation against a reference dye; format: physicochemical; conditions: PBS 7.4
Experimental: Cresyl-violet-perchlorate (as presented hereinbelow) was chosen as a reference compound for the determination of QCy7 quantum yield.
as §2
Conversion to the absolute quantum yield is achieved through the following equation: ΦX=ΦST(GradX/GradST)(η^2X/η^2ST) where the subscripts ST and X denote standard and test respectively, Φ is the fluorescence quantum yield, Grad the gradient from the plot of integrated fluorescence intensity vs. absorbance (see, FIG. 6), and η the refractive index of the solvents. ΦCresyl-violet=0.55 [Stefan et al. ([…]) J. Phys. Chem. 86, 1738-1742].
QCy7 was chosen as a reference compound for the determination of Sulfo-QCy7 quantum yield.
as §3
The absolute quantum yield was calculated as described hereinabove and found to be: […]

[3] = Extinction coefficient calculation (absorbance vs concentration); format: physicochemical
From the text: FIG. 7 presents linear plots of QCy7 as measured at 1 cm cuvette, at the indicated concentrations in PBS 7.4, at the maximum wavelength of QCy7 (560 nm). εQCy7=26848[M^−1cm^−1]
FIG. 10 presents linear plots of Sulfo-QCy7 as measured at 1 cm cuvette, at the indicated concentrations in PBS 7.4, at the maximum wavelength of Sulfo-QCy7 (590 nm). εSulfo-QCy7=52235[M^−1cm^−1]

[4] = system: HeLa cells; assay: Cell permeability, confocal imaging of HeLa cells; format: cell-based
Experimental: HeLa cells were incubated overnight with Compound 9 in PBS 7.4, and the cells was thereafter imaged by confocal microscope.
A colocalization assay of Compound 25 was conducted with the lysosome marker lysosensor. Sample was excited with a 561 nm laser line and fluorescence acquired from 570 nm to 800 nm.

[5] = NIR fluorescence emission spectrum of dye compounds; format: physicochemical; conditions: PBS 7.4 [50 μM], excitation 570 nm, cutting filter >690 nm
[6] = in methanol; Stefan et al. 1992; cited from earlier work
[7] = UV-Vis absorption spectrum of dye compounds; format: physicochemical
From the text: as §1
Compound 14 is composed from a phenol latent donor and two different acceptors; a picolinium moiety and an indolium moiety (see, Scheme 3). Deprotonation of the phenolic dye leads to formation of new donor-acceptor pair fluorochrome.
Compound 18 is composed of a phenol latent donor and two identical acceptors based on a picolinium moiety (see, Scheme 4). Deprotonation of the phenolic form leads to formation of new donor-acceptor pair fluorochrome.
Compound 25 is composed of a phenol latent donor and three acceptors; two picolinium moieties and one indolium moiety (see, Scheme 5). Deprotonation of the phenolic compound leads to formation of three resonance donor-two-acceptor structures of new fluorochrome.
The chemical 2D structures and spectroscopic data obtained for exemplary dye molecules according to embodiments of the present invention are presented in Table 1.

[8] = Aqueous stability in PBS 7.4 at 37° C., NIR emission over 72 hours; format: physicochemical; conditions: PBS 7.4 [25 μM]
Experimental: The aqueous stability of the cyanine-like dye compound presented herein was tested and compared to that of the cyanine molecule Cy7.
All tested compounds were incubated in PBS 7.4 [25 μM], at 37° C., and their NIR fluorescent emission was monitored over 72 hours. FIG. 15 presents the normalized intensity of NIR fluorescent emission of dyes generated from Compound 9 (green circles; Sulfo-QCy7), Compound 14 (blue diamonds), Compound 18 (red squares), Compound 25 (orange triangles) and Compound 1 (blank navy squares; QCy7) as a function of incubation time.

[9] = pKa measurement by UV-Vis absorbance as a function of pH; format: physicochemical; conditions: buffers at the indicated pH; 50 μM in buffers, phenol form
Experimental: The pKa values of exemplary compounds according to some embodiments of the present invention, Compounds 14, 18 and 25, was measured by monitoring their UV-Vis absorbance as a function of the environment pH. The tested compounds, at a concentration of 50 μM were dissolved in the respective buffers at the indicated pH and their absorbance was measured.

[10] = system: HeLa cells; assay: Two-photon excitation with NIR laser in HeLa cells; format: cell-based; conditions: incubated with HeLa cells and PBS 7.4
Experimental: Fluorescent dyes, which absorb at wavelengths of 350-550 nm, can be excited in NIR region with a two-photon laser.
Compound 25 was incubated with HeLa cells and PBS 7.4.

SMILES | fluorescence emission peak in the NIR region [1] | λmax [1] | quantum yield [2] | extinction coefficient ε ([3]; PBS 7.4, 1 cm cuvette, at maximum wavelength (QCy7 560 nm, Sulfo-QCy7 590 nm)) | extinction coefficient ([3]; rounded value) | fluorescence inside vs outside the cells ([4]; HeLa cells incubated overnight, PBS 7.4) | appearance under NIR imaging camera [5] | fluorescence quantum yield of reference [6] | UV-Vis absorption peak maximum ([7]; PBS 7.4) | λmax ([7]; Table 1, first λmax column (absorption peaks)) | aqueous stability compared with Cy7 [8] | pKa [9] | cellular localization (colocalization with lysosensor) ([4]; HeLa cells, excitation 561 nm, 570-800 nm) | chemical stability in cell-medium ([4]; overnight incubation with cells) | NIR fluorescence under acidic condition of the lysosome ([4]; pH of about 5) | two-photon excitation spectrum wavelengths [10]
CC1(C)C(/C=C/c2ccc(O)c(/C=C/C3=[N+](CCCS(=O)(=O)[O-])c4ccccc4C3(C)C)c2)=[N+](CCCS(=O)(=O)[O-])c2ccccc21 [Compound 9] | 720 nm | 710 nm | 16% | 52235 M⁻¹ cm⁻¹ | 52,000 mol^−1 cm^−1 | higher fluorescence inside the cells | exhibits well-observed NIR fluorescence |  |  |  |  |  |  |  |  | 
N=c1cc2oc3cc(N)ccc3nc-2c2ccccc12.[O-][Cl+3]([O-])([O-])O [Cresyl-violet, Cresyl-violet-perchlorate] |  |  |  |  |  |  |  | 0.55 |  |  |  |  |  |  |  | 
C[n+]1ccc(/C=C/c2cc(/C=C/C3=[N+](CCCS(=O)(=O)O)c4ccccc4C3(C)C)cc(/C=C/c3cc[n+](C)cc3)c2O)cc1 [Compound 25] | 680 nm | 650 nm | 16% |  |  |  |  |  | 330 nm and 550 nm | 550 nm | increase aqueous stability than that of Cy7 | 5.4 | accumulation of the dye in the lisosomal vesicles indicates cell-penetration through endocytosis mechanism | chemical stability after overnight in cell-medium | emitted NIR fluorescence even under the acidic condition of the lysosome | 800-1000 nm
